This note sets out measurements from patent US7348427B2, “Antipathogenic benzamide compounds” (Genesoft Pharmaceuticals, Inc., priority 2001, dated 2008).

Assay [1] relates to Bacillus cereus (ATCC 11778). As to the kind of experiment: MIC, NCCLS broth microdilution assay. It counts as cell-based. The settings on record: A = B. cereus ATCC 11778. The procedure, abridged: (§1)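 Activity is measured as MIC in microtiter broth microdilution under NCCLS M7-A4, M11-A4 and M27-T guidance, with the yeast tested by the method in Murray's Manual of Clinical Microbiology.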

The test system of assay [2] is Enterococcus faecium (ATCC 51559, a vancomycin resistant strain (VRE)). In words: MIC, NCCLS broth microdilution assay. Format: cell-based. The settings on record: D = E. faecium ATCC 51559. In a few lines: as §1
The test system of assay [3] is Staphylococcus aureus (ATCC 13709, a methicillin sensitive strain (MSSA)). As to the kind of experiment: MIC, NCCLS broth microdilution assay. It counts as cell-based. The settings on record: E = S. aureus ATCC 13709. In a few lines:
as §1

Assay [4] has as its system Staphylococcus aureus (ATCC 27660, a methicillin resistant strain (MRSA)). In words: MIC, NCCLS broth microdilution assay. Format: cell-based. The settings on record: F = S. aureus ATCC 27660. The procedure, abridged:
as §1

In assay [5] the test system is Staphylococcus epidermidis (ATCC 12228). In words: MIC, NCCLS broth microdilution assay. It counts as cell-based. The settings on record: G = S. epidermidis ATCC 12228. The procedure, abridged:
as §1

Assay [6] relates to Streptococcus pneumoniae (ATCC 51422, a penicillin resistant strain (PRSP)). As to the kind of experiment: MIC, NCCLS broth microdilution assay. The note with it: I = S. pneumoniae ATCC 51422. It counts as cell-based. The procedure, abridged:
as §1

Assay [7] has as its system Candida albicans (ATCC 38247). As to the kind of experiment: Antifungal MIC assay. Format: cell-based. The settings on record: B = C. albicans ATCC 38247. The procedure, abridged: as §1
The test system of assay [8] is E. faecalis ATCC 29212. As to the kind of experiment: MIC, NCCLS broth microdilution assay. It counts as cell-based, Enterococcus faecalis. The settings on record: C = E. faecalis ATCC 29212. In a few lines: (§2)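 MICs were determined by NCCLS broth microdilution following documents M7-A4 and M11-A4 (1997).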
The subject of assay [9] is S. pneumoniae ATCC 49619. In words: MIC, NCCLS broth microdilution assay. The settings on record: H = S. pneumoniae ATCC 49619. It counts as cell-based, Streptococcus pneumoniae. The procedure, abridged: as §2

Consider `Cn1cc(NC(=O)c2cc(NC(=O)c3cc(NC(=O)c4ccc(F)cc4F)cn3C)cn2C)cc1C(=O)NCCN1CCSCC1` [Compound B-3], for which the “Minimum Inhibitory Concentration (MIC)” value in assay [1] is reported as “+++ (+++ = MIC ≦ 4)”; in assay [2], “+ (+ = 12 ≦ MIC ≦ 32)”; in assay [3], “+++ (+++ = MIC ≦ 4)”; in [4], “+++ (+++ = MIC ≦ 4)”; in assay [5], “+++ (+++ = MIC ≦ 4)”; in [6] it was “+++ (+++ = MIC ≦ 4)”. Besides, the “Minimum Inhibitory Concentration (MIC)” value in assay [7] was above 32 µg/mL; in assay [8], “+++ (+++ = MIC ≦ 4)”; in [9], “+++ (+++ = MIC ≦ 4)”.

For the molecule `Cn1cc(NC(=O)c2cc(NC(=O)c3ccc(F)cc3F)cn2C)cc1C(=O)NCCN1CCSCC1` [Compound B-11], the “Minimum Inhibitory Concentration (MIC)” value in assay [1], in assay [2], in assay [3], in assay [4], in [5] and in assay [6] was “+++ (+++ = MIC ≦ 4)” throughout. The “Minimum Inhibitory Concentration (MIC)” value in assay [7] was above 32 µg/mL; in assay [8], “+++ (+++ = MIC ≦ 4)”; in assay [9], “+++ (+++ = MIC ≦ 4)”.

Turning to `Cn1cc(NC(=O)c2cc(NC(=O)c3cc(NC(=O)c4ccc(F)cc4F)cn3C)cn2C)cc1C(=O)NCCc1ccncc1` [Compound B-22], the “Minimum Inhibitory Concentration (MIC)” value in [1], in assay [2], in [3], in [4], in [5] and in [6] was “+++ (+++ = MIC ≦ 4)” each time. In addition, the “Minimum Inhibitory Concentration (MIC)” value in assay [7] is above 32 µg/mL; in assay [8] it was “+++ (+++ = MIC ≦ 4)”; in assay [9], “+++ (+++ = MIC ≦ 4)”.

For the molecule `Cn1cc(NC(=O)c2cc(NC(=O)c3cc(NC(=O)c4ccc(F)cc4F)cn3C)cn2C)cc1C(=O)NCCc1cccnc1` [Compound B-24], the “Minimum Inhibitory Concentration (MIC)” value in assay [1], in [2], in [3], in [4], in assay [5] and in [6] was “+++ (+++ = MIC ≦ 4)” each time. Moreover, the “Minimum Inhibitory Concentration (MIC)” value is above 32 µg/mL in [7], “+++ (+++ = MIC ≦ 4)” in assay [8] and “+++ (+++ = MIC ≦ 4)” in assay [9].

In the case of `Cn1cc(NC(=O)c2ccc(F)cc2F)cc1C(=O)Nc1cc(C(=O)Nc2cc(C(=O)N3CCC(O)CC3)n(C)c2)n(C)c1` [Compound B-26], the “Minimum Inhibitory Concentration (MIC)” value in assay [1], in assay [2], in assay [3], in assay [4], in assay [5] and in assay [6] was above 32 µg/mL each time. The “Minimum Inhibitory Concentration (MIC)” value in [7], in assay [8] and in assay [9] was above 32 µg/mL in each case.

`Cn1cc(NC(=O)c2cc(NC(=O)c3cc(NC(=O)c4ccc(F)cc4F)cn3C)cn2C)cc1C(=O)NCCN1CCC(F)(F)CC1` [Compound B-27]: the “Minimum Inhibitory Concentration (MIC)” value in [1], in assay [2], in [3], in assay [4], in assay [5] and in assay [6] was “+++ (+++ = MIC ≦ 4)” in each case. The “Minimum Inhibitory Concentration (MIC)” value was above 32 µg/mL in assay [7], “+++ (+++ = MIC ≦ 4)” in [8] and “+++ (+++ = MIC ≦ 4)” in assay [9].

For `Cn1cc(NC(=O)c2cc(NC(=O)c3cc(NC(=O)c4ccccc4F)cn3C)cn2C)cc1C(=O)NCCN1CCSCC1` [Compound B-41], the “Minimum Inhibitory Concentration (MIC)” value in assay [1], in [2], in assay [3], in assay [4], in [5] and in assay [6] was “+++ (+++ = MIC ≦ 4)” throughout. The “Minimum Inhibitory Concentration (MIC)” value is above 32 µg/mL in [7], “+++ (+++ = MIC ≦ 4)” in [8] and “+++ (+++ = MIC ≦ 4)” in assay [9].

On to `Cn1cc(NC(=O)c2cc(NC(=O)c3ccc(Cl)cc3F)cn2C)cc1C(=O)NCCN1CCOCC1` [Compound B-48], for which the “Minimum Inhibitory Concentration (MIC)” value in assay [1] was “+++ (+++ = MIC ≦ 4)”; in [2], “+++ (+++ = MIC ≦ 4)”; in assay [3] it was “+++ (+++ = MIC ≦ 4)”; in assay [4], “++ (++ = 4 < MIC < 12)”; in assay [5], “+++ (+++ = MIC ≦ 4)”; in [6], “+++ (+++ = MIC ≦ 4)”. Also, the “Minimum Inhibitory Concentration (MIC)” value in assay [7] is above 32 µg/mL; in assay [8], “+++ (+++ = MIC ≦ 4)”; in assay [9] it was “+++ (+++ = MIC ≦ 4)”.

In the case of `Cn1cc(NC(=O)c2cc(NC(=O)c3cc(NC(=O)c4ccc(Cl)cc4F)cn3C)cn2C)cc1C(=O)NCCN1CCSCC1` [Compound B-49], the “Minimum Inhibitory Concentration (MIC)” value in assay [1], in [2], in assay [3], in assay [4], in assay [5] and in assay [6] was “+++ (+++ = MIC ≦ 4)” in each case. For the same molecule, the results for the “Minimum Inhibitory Concentration (MIC)” value in assay [7], in [8] and in assay [9] were above 32 µg/mL, “+++ (+++ = MIC ≦ 4)” and “+++ (+++ = MIC ≦ 4)”, respectively.

On to `Cn1cc(NC(=O)c2cc(NC(=O)c3cc(NC(=O)c4ccc(Cl)c(Cl)c4)cn3C)cn2C)cc1C(=O)NCCN1CCOCC1` [Compound B-53], for which the “Minimum Inhibitory Concentration (MIC)” value in assay [1], in assay [2], in [3], in assay [4], in assay [5] and in assay [6] was “+++ (+++ = MIC ≦ 4)” in each case. Further, the “Minimum Inhibitory Concentration (MIC)” value in [7] is above 32 µg/mL; in assay [8], “+++ (+++ = MIC ≦ 4)”; in [9], “+++ (+++ = MIC ≦ 4)”.

As for `Cn1cc(NC(=O)c2cc(NC(=O)c3cc(NC(=O)c4ccc(Cl)cc4)cn3C)cn2C)cc1C(=O)NCCN1CCSCC1` [Compound B-58], the “Minimum Inhibitory Concentration (MIC)” value in assay [1] is “+++ (+++ = MIC ≦ 4)”; in assay [2] it was “+ (+ = 12 ≦ MIC ≦ 32)”; in [3], “+++ (+++ = MIC ≦ 4)”; in assay [4] it was “+++ (+++ = MIC ≦ 4)”; in assay [5], “++ (++ = 4 < MIC < 12)”; in [6], “+++ (+++ = MIC ≦ 4)”. Besides, the “Minimum Inhibitory Concentration (MIC)” value is above 32 µg/mL in [7], “+++ (+++ = MIC ≦ 4)” in assay [8] and “+++ (+++ = MIC ≦ 4)” in assay [9].

With `Cn1cc(NC(=O)c2cc(NC(=O)c3cc(NC(=O)c4ccc(Cl)cc4NCCN4CCCCC4)cn3C)cn2C)cc1C(=O)NCCN1CCCCC1` [Compound B-64], the “Minimum Inhibitory Concentration (MIC)” value in [1], in assay [2], in assay [3], in assay [4], in [5] and in [6] was “+++ (+++ = MIC ≦ 4)” throughout. The “Minimum Inhibitory Concentration (MIC)” value in assay [7], in assay [8] and in [9] was “+++ (+++ = MIC ≦ 4)” in each case.
